Our source for the z-score and cell count values is PubChem BioAssay AID2124 (Sanford-Burnham Center for Chemical Genomics, 2009).

Records with an inconclusive call do not appear. The source made the active and inactive calls. The rule behind the calls is not given here; tested in MIN6 cells.

The test can be described thus: GFP-wavelength compound autofluorescence in cells – imaging, high-content imaging, artefact control, dose response (AID 2124).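 For all read-outs here: cells exposed to compound for 48 hours before fixing.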 The following applies: cells, GFP-channel autofluorescence, high-content imaging, at 10 µM; for z-score: stronger effect = higher value.

`COC(=O)c1c[nH]n2c(=O)c(Cc3ccc(F)cc3Cl)c(C)nc12`: the z-score is -0.33 (inactive) and the cell count is 3100 cells.

`CCN(CC)c1ccc2cc(-c3nnc(-c4ccccc4)o3)c(=O)oc2c1`: the z-score was 1.33 and the cell count was found to be 3220 cells.

`COc1ccc(NC2=Nc3ccccc3N3C2=Nc2c(c(C)nn2-c2ccc(C)cc2)C3c2cccnc2)cc1` (stereo not given): the z-score is -0.31 (inactive) and the cell count was 2790 cells.

In the case of `CCN1/C(=C/C=C/c2oc3ccc4ccccc4c3[n+]2CC)Oc2ccc3ccccc3c21`, the z-score is 1.7 and the cell count was determined as 330 cells.

As to `CCCNC(=O)N1CCC(C(=O)c2ccc(Cl)cc2)CC1`, the z-score was -0.38 (inactive) and the cell count came to 2970 cells.

Take `CC(NC(=O)/C(C#N)=C1\N=C(NC(=O)c2ccco2)c2ccccc21)c1ccccc1` (stereo not given): the z-score is -0.32 (inactive) and the cell count was found to be 2760 cells.

Turning to `O=C(NCCc1csc(-c2ccccc2)n1)c1ccccc1F`, the z-score was -0.25 (inactive) and the cell count was determined as 3010 cells.

`CC(C)OC(=O)CN1C(=O)S/C(=C/c2ccc(N3CCCCC3)o2)C1=O`: the z-score is 0.56 and the cell count was 2120 cells.

Consider `O=C1S/C(=C/c2ccc(N3CCOCC3)o2)C(=O)N1Cc1ccc(F)cc1`, for which the z-score was 0.51 and the cell count amounted to 3300 cells.

In the case of `CCN(CCNC(=O)C1CCCN(S(=O)(=O)CC)C1)c1ccccc1` (stereo not given), the z-score was -0.33 (inactive) and the cell count was determined as 3430 cells.

For the molecule `COc1ccccc1NC(=O)/C=C1\SCC(=O)N1C`, the z-score is -0.25 (inactive) and the cell count was 3000 cells.

Regarding `C(=C/c1nccc2c1[nH]c1ccccc12)/c1ccc2c(c1)OCO2`, the z-score was 0.26 and the cell count came to 1910 cells.

Turning to `COC(=O)[C@@H](NC(=O)Nc1cccc(OC)c1)C(C)C`, the z-score is -0.39 (inactive) and the cell count was found to be 3030 cells.

On to `CC(C)(C)C(=O)c1sc2nc(-c3cccs3)cc(C(F)(F)F)c2c1N`, for which the z-score was -0.22 (inactive) and the cell count turned out to be 2740 cells.

Consider `CCCCNC(=S)NC(=O)c1ccc(Cl)cc1Cl`, for which the z-score was -0.39 (inactive) and the cell count came out at 3500 cells.

Turning to `O=C1C=C(Nc2ccc(O)cc2)CC(c2ccco2)C1` (stereo not given), the z-score was -0.39 (inactive) and the cell count came to 3020 cells.

Take `COc1ccc(-c2nnn(CC(=O)N(CCO)C(C(=O)NC3CCCC3)c3ccc(F)cc3)n2)cc1` (stereo not given): the z-score is -0.33 (inactive) and the cell count turned out to be 3200 cells.

On to `CCOc1ccc(OCCCCn2ccnc2)cc1`, for which the z-score is -0.39 (inactive) and the cell count came to 2900 cells.

Consider `Cc1cccc(OCCNc2nc3c(c(=O)n(C)c(=O)n3C)n2C)c1`, for which the z-score is -0.33 (inactive) and the cell count turned out to be 3060 cells.

Turning to `N#C/C(=C\C1=C(N2CCOCC2)C(=C/c2cccc([N+](=O)[O-])c2)/CC1)C(=O)Nc1ccccc1F`, the z-score is -0.32 (inactive) and the cell count came to 2940 cells.

For `CCCCCCc1cc2cc(-c3nnc(-c4ccccc4OC)o3)c(=O)oc2cc1O`, the z-score is -0.21 (inactive) and the cell count stood at 2630 cells.

`Cc1cc(C2C(C#N)=C(N)Oc3n[nH]c(C)c32)c(C)s1` (stereo not given): the z-score was -0.25 (inactive) and the cell count came to 3010 cells.

For the molecule `CCCN1CC=C2C(C#N)=C(N)C(C#N)(C#N)C(c3cccc(OC)c3OC)C2C1` (stereo not given), the z-score is 0.21 and the cell count worked out at 3050 cells.

For `CC(C)NC(=O)N1CCN(c2ccncc2S(=O)(=O)N2CCOCC2)CC1`, the z-score was -0.39 (inactive) and the cell count stood at 2900 cells.

On to `COc1cc(C)nc(N2CCCC(C(=O)Nc3cccc(Cl)c3C)C2)n1` (stereo not given), for which the z-score was -0.38 (inactive) and the cell count was determined as 3090 cells.
